Literature values in patent US12268209B2, “Liquid sulfonylurea-containing herbicidal compositions” (Mitsui AgriScience International S.A./N.V., priority 2014, dated 2025).

Legend:
[1] = after 5 days, depending on the selected solvent; 52° C.
[2] = after one week of storage at 40° C.; compositions of WO 2007/027863 A2

Compound: COC(=O)c1ccccc1S(=O)(=O)NC(=O)Nc1nc(C)nc(OC)n1 [metsulfuron-methyl, methyl 2-[[[[(4-methoxy-6-methyl-1,3,5-triazin-2-yl)amino]carbonyl]amino]sulfonyl]benzoate]
- metsulfuron methyl lost [1]: 25-30%

Compound: COC(=O)c1ccccc1S(=O)(=O)NC(=O)N(C)c1nc(C)nc(OC)n1 [tribenuron-methyl, methyl 2-[[[[N-(4-methoxy-6-methyl-1,3,5-triazin-2-yl)-N-methylamino]carbonyl]amino]-sulfonyl]benzoate]
- tribenuron-methyl lost [2]: up to 66.5%
